Data as given in patent US9605004B2, “Chemical compounds” (SYNGENTA LIMITED, priority 2013, dated 2017).

Assays:
[1] = system: a variety of test species; assay: Post-emergence herbicidal activity (Example 8b, Table 3); format: in vivo; conditions: application post-emergence, rate 1000 g/ha, evaluated after 13 days, scale 0-5; for Herbicidal damage score, ABUTH: Abutilon theophrasti; for Herbicidal damage score, ALOMY: Alopecurus myosuroides; for Herbicidal damage score, AMARE: Amaranthus retroflexus; for Herbicidal damage score, ECHCG: Echinochloa crus-galli; for Herbicidal damage score, SETFA: Setaria faberi; for Herbicidal damage score, ZEAMX: Zea mays
Protocol: (§1) Seeds of a variety of test species were sown in standard soil in pots. After 8 days cultivation (post-emergence) under controlled conditions in a glasshouse (at 24/16° C., day/night; 14 hours light; 65% humidity), the plants were sprayed with an aqueous spray solution derived from the formulation of the technical active ingredient in acetone/water (50:50) solution containing 0.5% Tween 20 (polyoxyethelyene sorbitan monolaurate, CAS RN 9005-64-5). The test plants were then grown in a glasshouse under controlled conditions (at 24/16° C., day/night; 14 hours light; 65% humidity) and watered twice daily. After 13 days, the test was evaluated (5=total damage to plant; 0=no damage to plant).

[2] = system: a variety of test species; assay: Pre-emergence herbicidal activity (Example 8a, Table 2); format: in vivo; parameters: key: 0 = no damage to plant, 5 = total damage to plant; conditions: application pre-emergence, rate 1000 g/ha, evaluated after 13 days
Protocol: as §1, with “After” for “After 8 days”, “for one day (pre-emergence)” for “(post-emergence)”

## CCOC(c1cc(N2C(=O)C(Cl)=C(C)C2O)nn1C)C(C)(C)C (mixture of isomers) [Compound B34]
[1]
  Herbicidal damage score, ABUTH: 5
  Herbicidal damage score, ALOMY: 3
  Herbicidal damage score, AMARE: 2
  Herbicidal damage score, ECHCG: 3
  Herbicidal damage score, SETFA: 3
  Herbicidal damage score, ZEAMX: 0
[2]
  Pre-emergence herbicidal activity, damage score ABUTH: 4
  Pre-emergence herbicidal activity, damage score ALOMY: 2
  Pre-emergence herbicidal activity, damage score AMARE: 2
  Pre-emergence herbicidal activity, damage score ECHCG: 3
  Pre-emergence herbicidal activity, damage score SETFA: 1
  Pre-emergence herbicidal activity, damage score ZEAMX: 1

## CC1=C(Cl)C(=O)N(c2cc(C(F)C(C)(C)C)n(C)n2)C1O (mixture of isomers) [Compound B37]
[1]
  Herbicidal damage score, ABUTH: 4
  Herbicidal damage score, ALOMY: 5
  Herbicidal damage score, AMARE: 5
  Herbicidal damage score, ECHCG: 5
  Herbicidal damage score, SETFA: 5
  Herbicidal damage score, ZEAMX: 4
[2]
  Pre-emergence herbicidal activity, damage score ABUTH: 4
  Pre-emergence herbicidal activity, damage score ALOMY: 3
  Pre-emergence herbicidal activity, damage score AMARE: 5
  Pre-emergence herbicidal activity, damage score ECHCG: 3
  Pre-emergence herbicidal activity, damage score SETFA: 4
  Pre-emergence herbicidal activity, damage score ZEAMX: 3

## CC1=C(Cl)C(=O)N(c2cc(C(C)(F)C(C)(C)C)n(C)n2)C1O (mixture of isomers) [Compound B40]
[1]
  Herbicidal damage score, ABUTH: 5
  Herbicidal damage score, ALOMY: 4
  Herbicidal damage score, AMARE: 5
  Herbicidal damage score, ECHCG: 5
  Herbicidal damage score, SETFA: 5
  Herbicidal damage score, ZEAMX: 1
[2]
  Pre-emergence herbicidal activity, damage score ABUTH: 5
  Pre-emergence herbicidal activity, damage score ALOMY: 1
  Pre-emergence herbicidal activity, damage score AMARE: 3
  Pre-emergence herbicidal activity, damage score ECHCG: 2
  Pre-emergence herbicidal activity, damage score SETFA: 3
  Pre-emergence herbicidal activity, damage score ZEAMX: 0

## CC1=C(Cl)C(=O)N(c2cc(C(C)c3ccccc3)n(C)n2)C1O (mixture of isomers) [Compound B41]
[1]
  Herbicidal damage score, ABUTH: 5
  Herbicidal damage score, ALOMY: 5
  Herbicidal damage score, AMARE: 4
  Herbicidal damage score, ECHCG: 5
  Herbicidal damage score, SETFA: 5
  Herbicidal damage score, ZEAMX: 2
[2]
  Pre-emergence herbicidal activity, damage score ABUTH: 4
  Pre-emergence herbicidal activity, damage score ALOMY: 3
  Pre-emergence herbicidal activity, damage score AMARE: 2
  Pre-emergence herbicidal activity, damage score ECHCG: 4
  Pre-emergence herbicidal activity, damage score SETFA: 4
  Pre-emergence herbicidal activity, damage score ZEAMX: 2

## CC1=C(Cl)C(=O)N(c2cc([S+](C)[O-])n(C)n2)C1O (mixture of isomers) [Compound B46]
[1]
  Herbicidal damage score, ABUTH: 5
  Herbicidal damage score, ALOMY: 4
  Herbicidal damage score, AMARE: 5
  Herbicidal damage score, ECHCG: 5
  Herbicidal damage score, SETFA: 5
  Herbicidal damage score, ZEAMX: 4
[2]
  Pre-emergence herbicidal activity, damage score ABUTH: 5
  Pre-emergence herbicidal activity, damage score ALOMY: 3
  Pre-emergence herbicidal activity, damage score AMARE: 5
  Pre-emergence herbicidal activity, damage score ECHCG: 4
  Pre-emergence herbicidal activity, damage score SETFA: 4
  Pre-emergence herbicidal activity, damage score ZEAMX: 1

## CCC1CCn2nc(N3C(=O)C(Cl)=C(C)C3O)cc21 (mixture of isomers) [Compound C10]
[1]
  Herbicidal damage score, ABUTH: 5
  Herbicidal damage score, ALOMY: 4
  Herbicidal damage score, AMARE: 5
  Herbicidal damage score, ECHCG: 5
  Herbicidal damage score, SETFA: 5
  Herbicidal damage score, ZEAMX: 4
[2]
  Pre-emergence herbicidal activity, damage score ABUTH: 4
  Pre-emergence herbicidal activity, damage score ALOMY: 4
  Pre-emergence herbicidal activity, damage score AMARE: 5
  Pre-emergence herbicidal activity, damage score ECHCG: 4
  Pre-emergence herbicidal activity, damage score SETFA: 5
  Pre-emergence herbicidal activity, damage score ZEAMX: 2
